Measurements taken from ChEMBL document CHEMBL5505977, “Discovery of novel pyrrolo[2,3-d]pyrimidines as potent menin-mixed lineage leukemia interaction inhibitors” (Eur J Med Chem, 2024).
Active and inactive are the calls of the source. The calls are words filed in the database; no cut-off is given here.

Experiments:
[1] = test system: MV4-11; assay: Induction of apoptosis in human MV4-11 cells assessed as late apoptotic cells at 0.1 uM incubated for 24 hrs by FITC Annexin-V/PI staining based flow cytometry analysis (reference value: 3%); type: functional
[2] = test system: MV4-11; assay: Induction of cell cycle arrest in human MV4-11 cells assessed as accumulation of cells at G0/G1 phase incubated for 24 hrs by PI/RNase staining based flow cytometry analysis; type: functional; details: dose 0.1-10 µM
[3] = test system: MV4-11; assay: Effect on cell differentiation in human MV4-11 cells assessed as assessed as increase in CD11b protein expression at M2-2 at 1 uM incubated for 7 days by flow cytometry analysis (reference value: 13.86%); type: functional; details: time 7 day
[4] = test system: Pfeiffer; assay: Antiproliferative activity against human Pfeiffer cells incubated for 72 hrs by MTT assay; type: functional, cell-based
[5] = test system: MV4-11; assay: Induction of apoptosis in human MV4-11 cells assessed as viable cells at 10 uM incubated for 24 hrs by FITC Annexin-V/PI staining based flow cytometry analysis (reference value: 94.27%); type: functional; details: read-out: Activity
[6] = test system: MV4-11; assay: Effect on cell differentiation in human MV4-11 cells assessed as assessed as increase in CD11b protein expression at M2-1 at 0.1 uM incubated for 7 days by flow cytometry analysis (reference value: 86.12%); type: functional; details: time 7 day
[7] = test system: MV4-11; assay: Induction of apoptosis in human MV4-11 cells assessed as late apoptotic cells at 10 uM incubated for 24 hrs by FITC Annexin-V/PI staining based flow cytometry analysis (reference value: 3%); type: functional
[8] = Antiproliferative activity against human NCM460 cells incubated for 72 hrs by MTT assay; type: toxicity, cell-based
[9] = test system: MV4-11; assay: cells; details: Homo sapiens, MV4-11, 72 h
Description: Antiproliferative activity against human MV4-11 cells incubated for 72 hrs by MTT assay

[10] = test system: MV4-11; assay: Induction of apoptosis in human MV4-11 cells assessed as early apoptotic cells at 10 uM incubated for 24 hrs by FITC Annexin-V/PI staining based flow cytometry analysis (reference value: 2.68%); type: functional
[11] = test system: Ramos; assay: Antiproliferative activity against human Ramos cells incubated for 72 hrs by MTT assay; type: functional, cell-based
[12] = test system: MV4-11; assay: Effect on cell differentiation in human MV4-11 cells assessed as assessed as increase in CD11b protein expression at M2-1 at 10 uM incubated for 7 days by flow cytometry analysis (reference value: 86.12%); type: functional; details: time 7 day
[13] = test system: MV4-11; assay: Effect on cell differentiation in human MV4-11 cells assessed as decrease in HOXA9 expression level at 0.5 uM by qPCR analysis; type: functional, cell-based; details: time 24-48 hrs, TDE = time-dependent effect
[14] = test system: MCF7; assay: Antiproliferative activity against human MCF7 cells incubated for 72 hrs by MTT assay; type: functional, cell-based; details: MCF7, 72 h
[15] = test system: MV4-11; assay: Induction of apoptosis in human MV4-11 cells assessed as late apoptotic cells at 1 uM incubated for 24 hrs by FITC Annexin-V/PI staining based flow cytometry analysis (reference value: 3%); type: functional
[16] = test system: MV4-11; assay: Effect on cell differentiation in human MV4-11 cells assessed as decrease in MEIS1 expression level incubated for 48 hrs by qPCR analysis; type: functional, cell-based
[17] = test system: MV4-11; assay: Induction of apoptosis in human MV4-11 cells assessed as viable cells at 0.1 uM incubated for 24 hrs by FITC Annexin-V/PI staining based flow cytometry analysis (reference value: 94.27%); type: functional; details: read-out: Activity
[18] = test system: MV4-11; assay: Effect on cell differentiation in human MV4-11 cells assessed as assessed as increase in CD11b protein expression at M2-2 at 10 uM incubated for 7 days by flow cytometry analysis (reference value: 13.86%); type: functional; details: time 7 day
[19] = test system: MV4-11; assay: Induction of apoptosis in human MV4-11 cells assessed as necrotic cells at 10 uM incubated for 24 hrs by FITC Annexin-V/PI staining based flow cytometry analysis (reference value: 0.04%); type: functional
[20] = test system: MV4-11; assay: Effect on cell differentiation in human MV4-11 cells assessed as assessed as increase in CD11b protein expression at M2-2 at 0.1 uM incubated for 7 days by flow cytometry analysis (reference value: 13.86%); type: functional; details: time 7 day
[21] = test system: HL-60; assay: Antiproliferative activity against human HL-60 cells incubated for 72 hrs by MTT assay; type: functional, cell-based; details: HL-60, 72 h
[22] = test system: MV4-11; assay: Induction of apoptosis in human MV4-11 cells assessed as early apoptotic cells at 1 uM incubated for 24 hrs by FITC Annexin-V/PI staining based flow cytometry analysis (reference value: 2.68%); type: functional
[23] = target: T1, Menin (Homo sapiens, UniProt O00255); assay: Binding affinity to menin (unknown origin) incubated for 1 hr by fluorescence polarization assay
T1 sequence (O00255 whole entry): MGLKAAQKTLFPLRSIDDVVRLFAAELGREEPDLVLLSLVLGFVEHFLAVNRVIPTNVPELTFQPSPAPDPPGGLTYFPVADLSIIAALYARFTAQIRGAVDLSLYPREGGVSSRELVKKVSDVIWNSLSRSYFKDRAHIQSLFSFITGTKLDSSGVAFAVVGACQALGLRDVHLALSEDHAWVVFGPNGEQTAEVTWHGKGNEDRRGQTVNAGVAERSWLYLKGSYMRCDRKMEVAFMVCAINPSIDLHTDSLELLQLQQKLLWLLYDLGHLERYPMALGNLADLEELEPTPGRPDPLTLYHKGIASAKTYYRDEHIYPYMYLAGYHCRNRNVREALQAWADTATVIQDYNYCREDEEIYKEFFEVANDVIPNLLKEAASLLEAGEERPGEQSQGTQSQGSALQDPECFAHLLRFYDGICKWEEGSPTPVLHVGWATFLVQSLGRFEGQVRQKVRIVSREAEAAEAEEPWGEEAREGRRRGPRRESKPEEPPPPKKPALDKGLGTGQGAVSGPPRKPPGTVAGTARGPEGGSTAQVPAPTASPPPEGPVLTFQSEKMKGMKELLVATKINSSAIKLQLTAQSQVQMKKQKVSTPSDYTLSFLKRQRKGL

[24] = test system: MV4-11; assay: Induction of apoptosis in human MV4-11 cells assessed as necrotic cells at 0.1 uM incubated for 24 hrs by FITC Annexin-V/PI staining based flow cytometry analysis (reference value: 0.04%); type: functional
[25] = test system: MV4-11; assay: Effect on cell differentiation in human MV4-11 cells assessed as assessed as increase in CD11b protein expression at M2-1 at 1 uM incubated for 7 days by flow cytometry analysis (reference value: 86.12%); type: functional; details: time 7 day
[26] = test system: MV4-11; assay: Effect on cell differentiation in human MV4-11 cells assessed as decrease in HOXA9 expression level incubated for 48 hrs by qPCR analysis; type: functional, cell-based
[27] = test system: MV4-11; assay: Induction of apoptosis in human MV4-11 cells assessed as early apoptotic cells at 0.1 uM incubated for 24 hrs by FITC Annexin-V/PI staining based flow cytometry analysis (reference value: 2.68%); type: functional
[28] = test system: MV4-11; assay: Effect on cell differentiation in human MV4-11 cells assessed as decrease in MEIS1 expression level at 0.5 uM by qPCR analysis; type: functional, cell-based; details: time 24-48 hrs, TDE = time-dependent effect
[29] = test system: MV4-11; assay: Induction of apoptosis in human MV4-11 cells assessed as necrotic cells at 1 uM incubated for 24 hrs by FITC Annexin-V/PI staining based flow cytometry analysis (reference value: 0.04%); type: functional
[30] = test system: HCT-116; assay: Antiproliferative activity against human HCT-116 cells incubated for 72 hrs by MTT assay; type: functional, cell-based; details: HCT-116, 72 h
[31] = test system: MV4-11; assay: Induction of apoptosis in human MV4-11 cells assessed as viable cells at 1 uM incubated for 24 hrs by FITC Annexin-V/PI staining based flow cytometry analysis (reference value: 94.27%); type: functional; details: read-out: Activity
[32] = test system: SU-DHL-6; assay: Antiproliferative activity against human SU-DHL-6 cells incubated for 72 hrs by MTT assay; type: functional, cell-based; details: SU-DHL-6, 72 h
[33] = test system: Raji; assay: Antiproliferative activity against human Raji cells incubated for 72 hrs by MTT assay; type: functional, cell-based
[34] = target: Menin/Histone-lysine N-methyltransferase MLL (Homo sapiens, UniProt O00255); assay: Inhibition of human menin-MLL (unknown origin) protein-protein interaction incubated for 0.5 to 4 hrs by TR-FRET assay
Menin/Histone-lysine N-methyltransferase MLL, sequence (Q03164 1-2718 partner limits assumed, one chain of several): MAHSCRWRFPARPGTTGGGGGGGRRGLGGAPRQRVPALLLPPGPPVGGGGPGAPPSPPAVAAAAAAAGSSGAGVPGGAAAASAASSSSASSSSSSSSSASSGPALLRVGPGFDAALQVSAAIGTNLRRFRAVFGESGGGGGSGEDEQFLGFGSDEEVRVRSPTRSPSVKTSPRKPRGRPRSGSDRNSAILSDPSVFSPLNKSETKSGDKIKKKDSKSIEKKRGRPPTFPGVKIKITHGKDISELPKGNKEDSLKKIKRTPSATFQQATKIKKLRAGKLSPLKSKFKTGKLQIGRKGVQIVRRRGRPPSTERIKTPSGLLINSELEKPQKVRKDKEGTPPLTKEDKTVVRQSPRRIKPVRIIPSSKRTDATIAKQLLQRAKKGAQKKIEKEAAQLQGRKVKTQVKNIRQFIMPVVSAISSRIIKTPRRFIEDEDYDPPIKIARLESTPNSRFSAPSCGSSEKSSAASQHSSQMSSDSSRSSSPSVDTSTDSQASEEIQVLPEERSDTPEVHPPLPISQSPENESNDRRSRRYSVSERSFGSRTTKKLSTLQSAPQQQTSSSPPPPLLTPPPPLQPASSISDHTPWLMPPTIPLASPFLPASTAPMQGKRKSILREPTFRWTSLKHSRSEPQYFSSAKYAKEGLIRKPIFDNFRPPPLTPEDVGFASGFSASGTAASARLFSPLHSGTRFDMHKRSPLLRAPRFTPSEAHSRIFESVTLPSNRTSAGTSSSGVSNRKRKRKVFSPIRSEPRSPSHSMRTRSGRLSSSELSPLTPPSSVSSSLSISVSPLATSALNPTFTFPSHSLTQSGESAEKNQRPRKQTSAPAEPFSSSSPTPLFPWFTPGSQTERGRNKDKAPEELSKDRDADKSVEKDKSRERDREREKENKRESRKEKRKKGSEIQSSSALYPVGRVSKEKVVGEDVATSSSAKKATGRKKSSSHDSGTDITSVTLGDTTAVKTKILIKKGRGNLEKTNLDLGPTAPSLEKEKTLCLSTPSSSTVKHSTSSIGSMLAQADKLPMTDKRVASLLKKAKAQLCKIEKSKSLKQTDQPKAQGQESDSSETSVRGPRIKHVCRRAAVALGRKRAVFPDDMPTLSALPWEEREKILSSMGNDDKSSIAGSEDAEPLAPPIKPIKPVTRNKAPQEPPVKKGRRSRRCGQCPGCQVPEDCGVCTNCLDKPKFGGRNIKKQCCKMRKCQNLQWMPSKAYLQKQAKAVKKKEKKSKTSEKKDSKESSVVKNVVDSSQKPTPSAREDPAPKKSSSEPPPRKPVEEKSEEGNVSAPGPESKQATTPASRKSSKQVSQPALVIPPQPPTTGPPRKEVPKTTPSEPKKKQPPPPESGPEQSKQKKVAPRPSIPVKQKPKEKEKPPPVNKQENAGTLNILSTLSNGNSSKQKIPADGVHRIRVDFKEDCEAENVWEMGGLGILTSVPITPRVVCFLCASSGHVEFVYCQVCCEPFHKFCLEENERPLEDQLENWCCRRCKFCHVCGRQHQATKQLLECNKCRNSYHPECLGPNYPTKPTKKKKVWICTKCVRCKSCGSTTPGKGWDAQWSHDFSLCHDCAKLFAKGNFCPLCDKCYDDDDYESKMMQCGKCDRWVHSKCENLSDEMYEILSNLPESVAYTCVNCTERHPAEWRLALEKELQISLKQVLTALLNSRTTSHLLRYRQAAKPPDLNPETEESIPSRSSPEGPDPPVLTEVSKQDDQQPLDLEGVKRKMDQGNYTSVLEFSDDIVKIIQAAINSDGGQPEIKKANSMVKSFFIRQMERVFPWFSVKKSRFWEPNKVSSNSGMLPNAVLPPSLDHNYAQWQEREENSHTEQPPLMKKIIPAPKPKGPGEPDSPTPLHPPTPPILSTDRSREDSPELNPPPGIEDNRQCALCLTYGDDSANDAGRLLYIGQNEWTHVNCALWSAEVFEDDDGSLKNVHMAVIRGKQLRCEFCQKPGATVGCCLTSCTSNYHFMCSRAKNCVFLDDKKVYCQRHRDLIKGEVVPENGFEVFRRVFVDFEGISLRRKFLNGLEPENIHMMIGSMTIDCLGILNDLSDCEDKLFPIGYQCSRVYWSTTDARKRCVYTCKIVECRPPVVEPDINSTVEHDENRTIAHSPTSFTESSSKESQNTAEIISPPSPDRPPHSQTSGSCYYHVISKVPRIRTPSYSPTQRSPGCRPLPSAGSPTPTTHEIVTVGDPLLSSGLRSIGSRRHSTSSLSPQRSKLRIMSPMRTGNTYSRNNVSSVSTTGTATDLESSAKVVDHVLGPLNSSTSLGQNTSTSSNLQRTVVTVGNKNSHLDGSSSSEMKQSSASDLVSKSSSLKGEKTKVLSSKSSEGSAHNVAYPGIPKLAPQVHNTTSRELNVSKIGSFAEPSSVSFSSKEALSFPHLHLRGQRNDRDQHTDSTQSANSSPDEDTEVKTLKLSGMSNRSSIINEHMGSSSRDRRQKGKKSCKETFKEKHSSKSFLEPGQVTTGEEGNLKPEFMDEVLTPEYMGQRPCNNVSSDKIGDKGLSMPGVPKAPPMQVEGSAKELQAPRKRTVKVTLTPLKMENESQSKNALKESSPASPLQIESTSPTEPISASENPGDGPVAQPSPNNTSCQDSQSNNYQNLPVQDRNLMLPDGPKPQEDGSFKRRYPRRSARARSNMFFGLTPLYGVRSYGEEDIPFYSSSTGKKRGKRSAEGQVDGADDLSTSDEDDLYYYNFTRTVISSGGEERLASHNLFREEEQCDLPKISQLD
Menin/Histone-lysine N-methyltransferase MLL, sequence (Q03164 2719-3969 partner limits assumed, one chain of several): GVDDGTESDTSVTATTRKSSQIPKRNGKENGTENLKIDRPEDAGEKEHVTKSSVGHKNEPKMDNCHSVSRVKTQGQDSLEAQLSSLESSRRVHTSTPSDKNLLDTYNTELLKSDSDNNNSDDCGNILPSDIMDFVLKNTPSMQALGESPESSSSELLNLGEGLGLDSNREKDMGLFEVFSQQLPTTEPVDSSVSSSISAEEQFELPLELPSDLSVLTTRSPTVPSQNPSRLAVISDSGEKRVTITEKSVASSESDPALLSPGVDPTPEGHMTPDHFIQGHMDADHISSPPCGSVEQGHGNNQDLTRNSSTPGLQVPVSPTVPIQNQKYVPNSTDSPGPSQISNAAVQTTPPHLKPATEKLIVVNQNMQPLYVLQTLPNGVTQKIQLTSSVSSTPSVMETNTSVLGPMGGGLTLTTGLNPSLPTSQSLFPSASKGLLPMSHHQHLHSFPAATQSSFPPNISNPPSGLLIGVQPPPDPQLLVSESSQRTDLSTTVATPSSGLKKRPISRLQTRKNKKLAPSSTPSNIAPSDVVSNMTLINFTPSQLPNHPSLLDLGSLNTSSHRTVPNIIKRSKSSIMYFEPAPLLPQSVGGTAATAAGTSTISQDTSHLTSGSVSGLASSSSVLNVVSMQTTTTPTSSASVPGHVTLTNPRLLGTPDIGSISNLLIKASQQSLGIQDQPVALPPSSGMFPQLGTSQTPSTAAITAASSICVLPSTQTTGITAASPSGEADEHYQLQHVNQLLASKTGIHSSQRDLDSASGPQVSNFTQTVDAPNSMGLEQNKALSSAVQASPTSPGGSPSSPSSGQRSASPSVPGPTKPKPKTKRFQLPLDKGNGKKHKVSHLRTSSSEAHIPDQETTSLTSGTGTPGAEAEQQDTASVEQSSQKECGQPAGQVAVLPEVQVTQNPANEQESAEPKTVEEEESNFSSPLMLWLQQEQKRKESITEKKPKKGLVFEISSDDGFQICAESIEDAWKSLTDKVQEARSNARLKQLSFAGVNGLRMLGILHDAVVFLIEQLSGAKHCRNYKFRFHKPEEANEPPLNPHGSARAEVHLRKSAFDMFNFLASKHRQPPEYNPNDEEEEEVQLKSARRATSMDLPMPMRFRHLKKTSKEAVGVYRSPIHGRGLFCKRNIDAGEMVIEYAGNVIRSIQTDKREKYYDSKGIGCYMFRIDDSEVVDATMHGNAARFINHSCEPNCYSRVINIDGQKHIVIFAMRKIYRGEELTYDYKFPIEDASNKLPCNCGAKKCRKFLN

[35] = test system: MV4-11; assay: Effect on cell differentiation in human MV4-11 cells assessed as decrease in HOXA9 expression level at 5 uM by qPCR analysis; type: functional, cell-based; details: time 24-48 hrs, TDE = time-dependent effect
[36] = test system: MV4-11; assay: Effect on cell differentiation in human MV4-11 cells assessed as decrease in MEIS1 expression level at 5 uM by qPCR analysis; type: functional, cell-based; details: time 24-48 hrs, TDE = time-dependent effect
[37] = test system: MV4-11; assay: Induction of cell cycle arrest in human MV4-11 cells assessed as accumulation of cells at G0/G1 phase at 10 uM incubated for 24 hrs by PI/RNase staining based flow cytometry analysis; type: functional

| Compound | Activity [3] [%] | viability at 10 µM [5] [%] | Activity [7] [%] | IC50 [9] [µM] | Activity [10] [%] | Activity [12] [%] | Activity [15] [%] | Activity [16] | Activity [18] [%] | Activity [19] [%] | IC50 [21] [µM] | Activity [22] [%] | IC50 [23] [µM] | Activity [25] [%] | Activity [26] | Activity [29] [%] | viability at 1 µM [31] [%] | other results |
| --- | --- | --- | --- | --- | --- | --- | --- | --- | --- | --- | --- | --- | --- | --- | --- | --- | --- | --- |
| N#Cc1ccc(N2CC(CN3CCC(n4cc(-c5ccc(F)cc5)c5c(N)ncnc54)CC3)C2)cc1 | 31.47 | 55.8 | 34.56 | 1.07 | 8.52 | 30.31 | 4.23 | Dose-Dependent Effect | 69.67 | 1.09 | > 10 | 4.53 | 0.38 | 68.53 | Dose-Dependent Effect | 0.14 | 91 | Activity [1]: 2.75%; Activity [2]: Dose-Dependent Effect; IC50 [4]: > 10 µM; Activity [6]: 85.59%; IC50 at 72 h [8]: > 10 µM; IC50 [11]: > 10 µM; Activity [13]: Tde; IC50 [14]: > 10 µM; viability at 0.1 µM [17]: 93.9%; Activity [20]: 14.39%; Activity [24]: 0.05%; Activity [27]: 3.34%; Activity [28]: Tde; IC50 [30]: > 10 µM; IC50 [32]: 6.87 µM; IC50 [33]: > 10 µM |
| Cc1c(CN2CCC3(CC2)CN(c2ncnc4sc(CC(F)(F)F)cc24)C3)ccc2c1cc(C#N)n2CC(N)=O |  |  |  |  |  |  |  |  |  |  |  |  |  |  |  |  |  | IC50 [34]: 0.008 µM |
| Nc1ncnc2c1c(-c1ccc(F)cc1)cn2C1CCN(CC2CN(c3ccc(S(=O)(=O)C4CCC4)cc3)C2)CC1 |  |  |  | 1.69 |  |  |  |  |  |  | 8.8 |  | 0.53 |  |  |  |  |  |
| N#Cc1ccc(N2CC(CN3CCC(n4ccc5c(Cl)ncnc54)CC3)C2)cc1 |  |  |  | 6.54 |  |  |  |  |  |  | > 10 |  | > 10 |  |  |  |  |  |
| CCCc1cc2c(N3CCN(C4=NCC(C)(C)S4)CC3)ncnc2s1 | 21 | 68 | 18.52 |  | 13.22 | 47.84 | 3.02 | Dose-Dependent Effect | 52.13 | 0.19 | > 10 | 3.12 |  | 79 | Dose-Dependent Effect | 0.09 | 93.8 | Activity [35]: Tde; Activity [36]: Tde; Activity [37]: Active |
